A word on the inhibition: it is the percentage by which the read-out fell short of the control.

The values below come from paper PMC3172082 (Nature, 2009).

Values joined by “and” are separate entries in the source; they are usually repeats but may differ in a detail not shown here. Equal values may be shown once. Where only a bound is given, the exact number is not on record here.

The test system of one data set is Mtb 20SOG. The class given is biochemical, Mycobacterium tuberculosis. Conditions: by partition ratios.
The subject of another data set is Mtb Erdman. It is filed as cell-based, Mycobacterium tuberculosis. Conditions: non-replicating Mtb.
The target of the next data set is mycobacterial proteasome (Mycobacterium bovis, UniProt A1KKF3). The data set is described as follows: cell-based. On the set-up: species or system Mycobacterium bovis var. BCG. The following applies: for inhibition at 50 µM: read-out: inhibition of mycobacterial proteasome activity in intact BCG.
In another data set the test system is BCG. The class given is cell-based, Mycobacterium bovis var. BCG.
Data set [1] concerns human monocyte-derived macrophages. The data set is described as follows: Cytotoxicity to human monocyte-derived macrophages. The class given is cell-based. The following applies: 7 days incubation; GL5 and HT1171 up to 75 μM.
Another data set concerns the target Mtb20SOG (Mycobacterium tuberculosis, UniProt P9WHT9). In words: High throughput screen, Mtb20SOG hydrolysis of Suc-LLVY-AMC. It is filed as biochemical. Conditions: 33 μM test compounds.

Chain of mycobacterial proteasome (A1KKF3 whole entry, looked up): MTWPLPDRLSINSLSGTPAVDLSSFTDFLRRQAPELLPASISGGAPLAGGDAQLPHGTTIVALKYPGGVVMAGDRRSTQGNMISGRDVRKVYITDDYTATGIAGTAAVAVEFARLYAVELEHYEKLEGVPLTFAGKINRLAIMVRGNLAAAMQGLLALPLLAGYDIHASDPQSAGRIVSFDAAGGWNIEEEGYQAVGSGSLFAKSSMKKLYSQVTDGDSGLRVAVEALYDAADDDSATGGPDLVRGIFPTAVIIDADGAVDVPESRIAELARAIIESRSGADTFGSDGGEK
Chain of Mtb20SOG (P9WHT9 whole entry, looked up): as the sequence (A1KKF3 whole entry, looked up) above

As for `CSc1sc(C)cc1-c1nsc(=O)o1` [GL5, 5-(5-methyl-2-(methylthio)thiophen-3-yl)-1,3,4-oxathiazol-2-one], in the data set with Mtb 20SOG, the “fold more effective against Mtb proteasomes than human proteasomes” value is more than 1000 fold. In the data set with Mtb Erdman (dose-dependent, 50 μM DETA-NO), the “Mtb killed over 4 days in synergy with nitric oxide” value is recorded as 1.5-2.5 log10. Also, on mycobacterial proteasome, the “reduction of proteasome activity in intact BCG” value is > 80% and ~ 50%; the inhibition at 50 µM is approximately 90%. Further, the “killing of BCG (in words)” value in the data set with BCG was “killed BCG alone and in synergy with sub-bacteriostatic fluxes of nitric oxide”. In addition, the “toxicity to human macrophages” value in data set [1] is “no apparent toxicity”.

Regarding `CC(C)C[C@H](NC(=O)[C@H](Cc1ccccc1)NC(=O)c1cnccn1)B(O)O` [bortezomib, reference compound], the “mycobactericidal activity compared with GL5 and HT1171 (in words)” value in the data set on Mtb Erdman (DETA-NO, 4 days) is on record as “less mycobactericidal”. Moreover, the inhibition at 50 µM on mycobacterial proteasome was 52%. The “toxicity to human macrophages” value in data set [1] is listed as “toxic”.

Take `Cc1cc(-c2nsc(=O)o2)c(S(C)(=O)=O)s1` [GL6, 5-(5-methyl-2-(methylsulfonyl)thiophen-3-yl)-1,3,4-oxathiazol-2-one]: the “activity in screen against Mtb20SOG” value on Mtb20SOG was “inactive”.
